According to patent US9096591B2, “Tetracyclic compounds” (Medivation Technologies, Inc., priority 2007, dated 2015):
One block for each compound: values may come before it.

Experiments:
[1] = target: T1, human recombinant histamine H2 receptor (Homo sapiens, UniProt P25021); test: Histamine H2 radioligand binding ([125I]Aminopotentidine); conditions: 0.3 μM compound; 0.1 nM [125I]Aminopotentidine; read-out: Histamine Binding H2, percent inhibition of specific binding
T1 construct: expressed in transfected cells; host or cells: CHO-K1 cells
T1 sequence (P25021 whole entry): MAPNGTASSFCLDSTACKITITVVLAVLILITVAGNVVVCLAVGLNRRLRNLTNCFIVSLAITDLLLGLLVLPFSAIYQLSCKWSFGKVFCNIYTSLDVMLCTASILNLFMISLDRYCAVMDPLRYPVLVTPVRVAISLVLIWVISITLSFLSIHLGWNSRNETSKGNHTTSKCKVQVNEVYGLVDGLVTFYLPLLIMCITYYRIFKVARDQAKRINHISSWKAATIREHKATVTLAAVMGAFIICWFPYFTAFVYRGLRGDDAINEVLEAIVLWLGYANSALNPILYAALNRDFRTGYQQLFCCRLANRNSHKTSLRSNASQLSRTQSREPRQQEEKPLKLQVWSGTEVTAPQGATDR
Experimental: Non-specific binding was estimated in the presence of 3 μM Tiotidine. […] Biochemical assay results are presented as the percent inhibition of specific binding in Table 5.
Non-specific binding was estimated in the presence of 3 μM Tiotidine. […] Compounds were screened at 1 μM, using 1% DMSO as vehicle. Biochemical assay results are presented as the percent inhibition of specific binding in Table 6.

[2] = test system: adrenergic receptors α1D, α2A, α2B; serotonin receptor 5-HT6; dopamine receptor D2L; test: Classification of compounds (Type 1-4) from receptor binding and neurite outgrowth
Excerpt: Compounds of the invention that inhibit binding of a ligand to adrenergic receptors α1D, α2A, α2B and serotonin receptor 5-HT6 by at least about 80% as determined in a suitable assay such as the assays described herein can be classified as Type 1 compounds. […] In one variation, binding of a ligand to serotonin receptor 5-HT7 is at least about 80%. […] Weak inhibition of binding of a ligand to the histamine H1 receptor is permitted as agonists of this receptor have been implicated in stimulating memory as well as weight gain. In one variation, binding to histamine receptor H1 is inhibited by less than about 80%. […] Compounds that inhibit binding of a ligand to the dopamine D2L receptor by at least about 80% as determined in a suitable assay such as the assay described herein can be classified as Type 2 compounds.
In one variation, Type 1 compounds further inhibit binding of a ligand to dopamine receptor D2L by less than about 80% as determined in a suitable assay known in the art such as the assay described herein. […] In one variation, binding of a ligand to serotonin receptor 5-HT7, 5-HT2A and/or 5-HT2C is inhibited by at least about 80% as determined in a suitable assay such as the assays described herein. […] In one variation, binding of a ligand to histamine receptor H1 and/or H2 is inhibited by less than about 80% as determined by a suitable assay known in the art such as the assays described herein.
In one variation, biding to serotonin receptor 5-HT2A is inhibited by at least about 80% as determined in a suitable assay know in the art such as the assay described herein.

[3] = target: T2, human recombinant histamine H1 receptor (Homo sapiens, UniProt P35367); test: Histamine H1 radioligand binding ([3H]Pyrilamine); conditions: […] [3H]Pyrilamine, read-out: Histamine Binding H1, percent inhibition of specific binding
T2 construct: expressed in transfected cells; host or cells: CHO cells
T2 sequence (P35367 whole entry): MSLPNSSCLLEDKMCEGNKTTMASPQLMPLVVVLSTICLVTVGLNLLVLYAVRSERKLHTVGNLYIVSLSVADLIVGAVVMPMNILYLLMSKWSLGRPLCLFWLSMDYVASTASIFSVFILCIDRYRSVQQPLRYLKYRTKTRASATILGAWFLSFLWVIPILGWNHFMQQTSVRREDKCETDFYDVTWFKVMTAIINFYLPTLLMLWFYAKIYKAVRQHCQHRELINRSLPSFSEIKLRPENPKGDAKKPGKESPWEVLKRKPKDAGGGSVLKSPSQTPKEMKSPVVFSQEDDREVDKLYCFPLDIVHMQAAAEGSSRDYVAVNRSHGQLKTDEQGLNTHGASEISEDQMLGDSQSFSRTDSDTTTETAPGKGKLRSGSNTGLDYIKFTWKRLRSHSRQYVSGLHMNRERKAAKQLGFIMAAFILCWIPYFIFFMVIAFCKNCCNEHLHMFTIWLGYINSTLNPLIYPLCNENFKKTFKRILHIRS
Experimental: To evaluate in radioligand binding assays the activity of compounds of the invention, human recombinant histamine H1 receptor expressed in Chinese hamster ovary (CHO) cells (De Backer M D et al. Biochem. Biophys. Res Comm. 197(3):1601, 1993) in a modified Tris-HCl buffer (50 mM Tris-HCl, pH 7.4, 2 mM MgCl2, 100 mM NaCl, 250 mM Sucrose) were used. […] Non-specific binding was estimated in the presence of 1 μM pyrilamine. Receptor proteins were filtered and washed, the filters were then counted to determine [^3H]pyrilamine specifically bound. […] Biochemical assay results are presented as the percent inhibition of specific binding in Table 5.
To evaluate in radioligand binding assays the activity of compounds of the invention, human recombinant histamine H1 receptor expressed in Chinese hamster ovary (CHO) cells (De Backer, M. D. et al., Biochem. Biophys. Res. Comm. 197(3):1601, 1993) in a modified Tris-HCl buffer (50 mM Tris-HCl, pH 7.4, 2 mM MgCl2, 100 mM NaCl, 250 mM Sucrose) was used. […] Non-specific binding was estimated in the presence of 1 μM pyrilamine. Receptor proteins were filtered and washed, the filters were then counted to determine [^3H]Pyrilamine specifically bound. Compounds were screened at 1 μM, using 1% DMSO as vehicle. Biochemical assay results are presented as the percent inhibition of specific binding in Table 6.

[4] = test system: synaptosomes of cortex of rat brain; test: Glutamate-induced 45Ca2+ uptake into synaptosomes; assay type: biochemical, Wistar rats; conditions: for % Ca of control (control-100%), glutamate-induced 45Ca2+ uptake into synaptosomes: rat cortex synaptosomes
Experimental: Synaptosomes were obtained from cerebral cortex of newborn (9-10 days) Wistar rats using standard Hajos method. The brain was homogenized with 10 volumes of cooled 0.32 M sucrose at 900 rpm. The homogenate was centrifuged at 1500 g for 10 min. and the resulted supernatant was centrifuged at 10000 g for 20 min. The radioactive label was accumulated by suspension of the synaptosomal P2-fraction in the incubation buffer A having the following composition: 132 mM NaCl, 5 mM KCl, 5 mM HEPES, 10 mM glucose, pH 7.4 (protein concentration of approximately 1.5-2 mg/ml). The mixture was further incubated for 5 min with 200 μM glutamate at 37° C. and then ^45Ca^2+ uptake was stopped by filtration through GF/B filters (Whatman, England) followed by three washes with cold buffer B (145 mM KCl, 10 mM Tris, 5.4 mM Trilon B, pH 7.4). The radioactivity probes were analyzed by fluid scintillation beta-analyzer (TriCarb, Perkin Elmer). All tests were performed in three parallel trials in 2-3 independent experiments. The amount of ^45Ca^2+ uptake was estimated by calculating the difference of radioactive label during the stimulation with glutamate and without the stimulation with agonist.
Specific ^45Ca^2+ uptake was estimated using the following equation: K(43/21)=[(Ca4−Ca3)/(Ca2−Ca1)]100%, where
Ca1—^45Ca^2+ uptake for the Control (without glutamate and the compound tested),
[…] glutamate-induced ^45Ca^2+ uptake (glutamate only),
Ca3—^45Ca^2+ uptake in the presence of the compound tested (without glutamate),
Ca4—^45Ca^2+ uptake in the presence of glutamate and the testing compound.
Statistical analysis of the results was performed using Student's t-test.

mice = test: recognition test of new location of a known object (spatial memory); assay type: in vivo

inhibition at 0.3 µM [1]: 27%
compound type (classification by receptor binding profile and neurite outgrowth) [2]: Type one
inhibition at 0.03 µM ([3]; 0.03 μM compound): 37%
inhibition at 0.1 µM ([3]; 0.1 μM compound): 57%
Structure (SMILES): CCN1CCc2c(c3cc(C)ccc3n2CC(O)c2ccc(C)cc2)C1 (racemic) [Compound 29, racemic-2-(2-ethyl-1,2,3,4-tetrahydro-8-methylpyrido[4,3-b]indol-5-yl)-1-p-tolylethanol]

Structure (SMILES): CN1CCc2c(c3cc(F)ccc3n2CCc2noc(-c3ccccc3)n2)C1 [Compound C4-7]
concentration at which glutamate-induced 45Ca2+ uptake into synaptosomes was not affected [4]: 0.1 to 10 µM
glutamate-induced 45Ca2+ uptake into synaptosomes of rat cortex, % of control ([4]; 50-100 μM): ~128%
% Ca of control (control-100%), glutamate-induced 45Ca2+ uptake into synaptosomes ([4]; compound 0.1 μM): 97.2 ± 5.5%
% Ca of control (control-100%), glutamate-induced 45Ca2+ uptake into synaptosomes ([4]; compound 0.5 μM): 87.6 ± 3.9%
% Ca of control (control-100%), glutamate-induced 45Ca2+ uptake into synaptosomes ([4]; compound 1 μM): 105.3 ± 2.8%
% Ca of control (control-100%), glutamate-induced 45Ca2+ uptake into synaptosomes ([4]; compound 5 μM): 109.2 ± 10%
% Ca of control (control-100%), glutamate-induced 45Ca2+ uptake into synaptosomes ([4]; compound 10 μM): 101.6 ± 7.8%
% Ca of control (control-100%), glutamate-induced 45Ca2+ uptake into synaptosomes ([4]; compound 50 μM): 128.3 ± 8.1%
% Ca of control (control-100%), glutamate-induced 45Ca2+ uptake into synaptosomes ([4]; compound 100 μM): 123.6 ± 4.9%
Influence on memory in the test recognition new localization of known object (mice; Dose of Compound 0.05 mg/kg): −
Influence on memory in the test recognition new localization of known object (mice; Dose of Compound 0.1 mg/kg): +
Influence on memory in the test recognition new localization of known object (mice; Dose of Compound 0.5 mg/kg): −
Influence on memory in the test recognition new localization of known object (mice; Dose of Compound 1.0 mg/kg): −
effect of the dose on exploration time / memory (in words) (mice; mice, dose 0.05 mg/kg): not effective
time exploring the object in a new location, % of the total time (mice; mice, dose 0.1 mg/kg): 63.4±10.4%
time exploring the object in the known position, % of the total time (mice; mice, dose 0.1 mg/kg): 36.6±10.4%
effect of the dose on exploration time / memory (in words) (mice; mice, dose 0.5 mg/kg): not effective
effect of the dose on exploration time / memory (in words) (mice; mice, dose 1 mg/kg): not effective
overall effect on memory (in words) (mice; mice, doses 0.05-1 mg/kg): stimulated memory

Structure (SMILES): CN1CCc2c(c3ccccc3n2CCc2noc(-c3ccccc3)n2)C1 [Compound G6-a, 2-Methyl-5-[2-(5-phenyl-1,2,4-oxadiazol-3-yl)ethyl]-2,3,4,5-tetrahydro-1H-pyrido[4,3-b]indole]
melting point: 111 to 112 °C

melting point: 77.5 to 79 °C
Structure (SMILES): COc1ccc2c(c1)c1c(n2CCc2noc(-c3ccccc3)n2)CCN(C)C1 [Compound G6-b, 8-Methoxy-2-methyl-5-[2-(5-phenyl-1,2,4-oxadiazol-3-yl)ethyl]-2,3,4,5-tetrahydro-1H-pyrido[4,3-b]indole]

Structure (SMILES): Cc1ccc2c(c1)c1c(n2CCc2noc(-c3ccccc3)n2)CCN(C)C1 [Compound G6-c, 2,8-Dimethyl-5-[2-(5-phenyl-1,2,4-oxadiazol-3-yl)ethyl]-2,3,4,5-tetrahydro-1H-pyrido[4,3-b]-indole]
melting point: 120 to 120.5 °C

Structure (SMILES): CN1CCc2c(c3cc(Cl)ccc3n2CCc2noc(-c3ccccc3)n2)C1 [Compound G6-d, 8-Chloro-2-methyl-5-[2-(5-phenyl-1,2,4-oxadiazol-3-yl)ethyl]-2,3,4,5-tetrahydro-1H-pyrido-[4,3-b]indole]
melting point: 122 to 123 °C

melting point: 121.5 to 122.5 °C
Structure (SMILES): CN1CCc2c(c3cc(F)ccc3n2CCc2noc(-c3ccccc3)n2)C1 [Compound G6-f, 8-Fluoro-2-methyl-5-[2-(5-phenyl-1,2,4-oxadiazol-3-yl)ethyl]-2,3,4,5-tetrahydro-1H-pyrido-[4,3-b]indole]

Structure (SMILES): COc1ccc2c(c1)c1c(n2CCc2nc(-c3ccccc3)cs2)CCN(C)C1 [Compound G8-b, 8-Methoxy-2-methyl-5-[2-(4-phenylthiazol-2-yl)ethyl]-2,3,4,5-tetrahydro-1H-pyrido[4,3-b]indole]
melting point: 135 to 136.5 °C

Structure (SMILES): Cc1ccc2c(c1)c1c(n2CCc2nc(-c3ccccc3)cs2)CCN(C)C1 [Compound G8-c, 2,8-Dimethyl-5-[2-(4-phenylthiazol-2-yl)ethyl]-2,3,4,5-tetrahydro-1H-pyrido[4,3-b]indole]
melting point: 148.5 to 149 °C

Structure (SMILES): CN1CCc2c(c3cc(F)ccc3n2CCc2nc(-c3ccccc3)cs2)C1 [Compound G8-f, 8-Fluoro-2-methyl-5-[2-(4-phenylthiazol-2-yl)ethyl]-2,3,4,5-tetrahydro-1H-pyrido[4,3-b]indole]
melting point: 136.5 to 137 °C

melting point: 216 to 219 °C
Structure (SMILES): CN1CCc2c(c3cc(Cl)ccc3n2CCc2n[nH]c(=S)n2C)C1 [Compound G11-b, 5-[2-(8-Chloro-2-methyl-2,3,4,5-tetrahydro-1H-pyrido[4,3-b]indol-5-yl)ethyl]-4-methyl-2,4-dihydro-1,2,4-triazole-3-thione]

melting point: 215 to 218 °C
Structure (SMILES): CN1CCc2c(c3cc(F)ccc3n2CCc2n[nH]c(=S)n2C)C1 [Compound G11-c, 5-[2-(8-Fluoro-2-methyl-2,3,4,5-tetrahydro-1H-pyrido[4,3-b]indol-5-yl)ethyl]-4-methyl-2,4-dihydro-1,2,4-triazole-3-thione]

melting point: 219 to 222 °C
Structure (SMILES): COc1ccc2c(c1)c1c(n2CCc2n[nH]c(=S)n2C)CCN(C)C1 [Compound G11-d, 5-[2-(8-Methoxy-2-methyl-2,3,4,5-tetrahydro-1H-pyrido[4,3-b]indol-5-yl)ethyl]-4-methyl-2,4-dihydro-1,2,4-triazole-3-thione]
